Assay results reported in patent publication US20170008928A1, “NOVEL PEPTIDES AND PEPTIDE DERIVATIVES AND USES THEREOF” (Novo Nordisk A/S, priority 2015, published 2017).
Starred links: 1 amine or outer side, 2 acyl side, 3 side chain; linkers in the order of their positions; H or OH if unused. Non-standard residues stand in square brackets, D forms with d. Residues, ends and D or L forms follow the SMILES beside them. *: point of attachment. Phe(4-CH2SO3H) = N[C@@H](Cc1ccc(CS(=O)(=O)O)cc1)C(=O)O; C20 diacid = O=C(O)CCCCCCCCCCCCCCCCCCC(=O)*; sY = N[C@@H](Cc1ccc(OS(=O)(=O)O)cc1)C(=O)O; C18 diacid = O=C(O)CCCCCCCCCCCCCCCCC(=O)*; γGlu = O=C(O)[C@H](CCC(=O)[*:2])N[*:1]; 1Nal = N[C@@H](Cc1cccc2ccccc12)C(=O)O; C14 diacid = O=C(O)CCCCCCCCCCCCC(=O)*; NMeF = CN[C@@H](Cc1ccccc1)C(=O)O; dNMeD = CN[C@H](CC(=O)O)C(=O)O; Nle = CCCC[C@H](N)C(=O)O; AEEA = NCCOCCOCC(=O)O

Test: Pharmacokinetic (PK) studies in mini-pig, i.v.
Format: in vivo
Conditions: i.v. 5 nmol/kg, female Göttingen mini-pigs, harmonic mean
Experimental: The purpose of this study is to determine the protraction in vivo of a number of CCK derivatives of the invention after intravenous (i.v.) administration to mini-pigs, i.e. the prolongation of their time in the body and thereby their time of action. This was done in pharmacokinetic (PK) studies, where the terminal half-life of the derivative in question was determined. By terminal half-life is generally meant the period of time it takes to halve a certain plasma concentration, measured after the initial distribution phase.
The derivatives of the compounds listed in Table 4 were subjected to PK studies as described in the following.
Female Göttingen mini-pigs obtained from Ellegaard Göttingen Minipigs (Dalmose, Denmark) at approximately 6 months of age and weighing approximately 17 kg were used in the studies. […] Additional blood samples were collected for the derivatives of Examples 2, 4, 7, 8, and 9 at the following time points: 5, 12, 22, 28 and 144 hours. The blood samples were collected into test tubes containing EDTA buffer for stabilisation and kept on ice for max. 20 minutes before centrifugation. The centrifugation procedure to separate plasma was: 4° C., approx. 2500 g for 10 minutes. Plasma was collected and immediately transferred to Micronic tubes stored at −20° C. until assayed.
Plasma was pipetted into Micronic tubes on dry ice, and kept at −20° C. until analysed for plasma concentration of the respective CCK derivative using LC-MS. The plasma samples (including standard curve samples used for quantitation of unknowns and prepared from blank plasma spiked with CCK compound at a concentration range of 0.5-2000 nM for the compounds of Examples 3, 5, 6 or 0.5-1000 nM for the remaining Example compounds) were protein precipitated using three volumes of methanol and centrifuged (16000×g, 4° C., 20 min). The supernatants were injected into the chromatographic system (TurboFlow Transcend 1250 & 10 valve VIM, Thermo Fisher Scientific) which consisted of an initial Turboflow Cyclone purification column 0.5×50 mm (Thermo Fischer Scientific) and an eluting Aeris peptide 3.6 μm XB—C18 column 2.1×50 mm (Phenomenex) kept at 60° C.
The CCK derivatives of Examples 2-9 were eluted using LC-MS method I: A chromatographic gradient system with mobile phases consisting of water with 0.1 v/v % formic acid (mobile phase A) and water/acetonitrile 10/90 v/v with 0.1 v/v % formic acid (mobile phase B). The 2 minute gradient started at 60% mobile phase B and ended at 100% mobile phase B with a flow of 0.4 mL/min. The CCK derivatives were detected and quantified after on-line infusion of the LC flow to the LTQ OrbiTrap Discovery mass spectrometer (Thermo Fischer Scientific) equipped with an electrospray interface operated in negative mode, ESI− (Sheath gas flow rate at 40, Aux gas flow rate at 30, Sweep gas flow rate at 2, Spray voltage at 2.8 kV, Capillary temp. at 275° C., S-lens RF level at −125 and Heater temp. at 325° C.).
The remaining Example compounds were eluted using LC-MS method II: A chromatographic gradient system with mobile phases consisting of water with 1 v/v % formic acid (mobile phase A) and water/acetonitrile 10/90 v/v with 1 v/v % formic acid (mobile phase B). The initial 0.25 minute gradient started at 0% mobile phase B and ended at 70% mobile phase B followed by the second 2.2 minute gradient started at 70% mobile phase B and ended at 75% mobile phase B with a flow of 0.4 mL/min. These CCK derivatives were detected and quantified as described above except that the Spray voltage was 4.0 kV.
Individual plasma concentration-time profiles were analysed by a non-compartmental model in Phoenix v. 6.3 (Pharsight Inc., Mountain View, Calif., USA).

Plasma terminal half-life (T½) [h]	half-life (minipig, plasma, iv, read-out: Plasma terminal half-life (T½) (converted)) [h]	Structure (SMILES)
140		CCCC[C@H](NC(=O)[C@H](Cc1ccc(OS(=O)(=O)O)cc1)NC(=O)[C@H](CC(=O)O)NC(=O)COCCOCCNC(=O)COCCOCCNC(=O)CC[C@H](NC(=O)CCCCCCCCCCCCCCCCC(=O)O)C(=O)O)C(=O)NCC(=O)N[C@@H](Cc1c[nH]c2ccccc12)C(=O)N[C@@H](CCCC)C(=O)N(C)[C@H](CC(=O)O)C(=O)N[C@@H](Cc1cccc2ccccc12)C(N)=O [Example 2, 2-[2-[2-[[2-[2-[2-[[(4S)-4-Carboxy-4-(17-carboxyheptadecanoylamino)butanoyl]amino]ethoxy]ethoxy]acetyl]amino]ethoxy]ethoxy]acetyl-Asp-sTyr-Nle-Gly-Trp-Nle-DMeAsp-1Nal-amide] ({C18 diacid-γGlu-AEEA-AEEA}-D[sY][Nle]GW[Nle][dNMeD][1Nal]-NH2)
	119	CCCC[C@H](NC(=O)[C@H](Cc1c[nH]c2ccccc12)NC(=O)CNC(=O)[C@H](CC(C)C)NC(=O)[C@H](Cc1ccc(OS(=O)(=O)O)cc1)NC(=O)[C@H](CC(=O)O)NC(=O)[C@H](CO)NC(=O)[C@H](CO)NC(=O)CNC(=O)[C@H](CO)NC(=O)[C@H](CO)NC(=O)CNC(=O)CCCCCCCCCCCCCCCCC(=O)O)C(=O)N(C)[C@H](CC(=O)O)C(=O)N(C)[C@@H](Cc1ccccc1)C(N)=O [Example 29, 17-Carboxyheptadecanoyl-Gly-Ser-Ser-Gly-Ser-Ser-Asp-sTyr-Leu-Gly-Trp-Nle-DMeAsp-MePhe-amide] ({C18 diacid}-GSSGSSD[sY]LGW[Nle][dNMeD][NMeF]-NH2)
2		CCCC[C@H](NC(=O)[C@H](Cc1c[nH]c2ccccc12)NC(=O)CNC(=O)[C@H](CC(C)C)NC(=O)[C@H](Cc1ccc(CS(=O)(=O)O)cc1)NC(=O)[C@H](CC(=O)O)NC(=O)COCCOCCNC(=O)COCCOCCNC(=O)CC[C@H](NC(=O)CCCCCCCCCCCCC(=O)O)C(=O)O)C(=O)N(C)[C@H](CC(=O)O)C(=O)N(C)[C@@H](Cc1ccccc1)C(N)=O [Example 34, 2-[2-[2-[[2-[2-[2-[[(4S)-4-Carboxy-4-(13-carboxytridecanoylamino)butanoyl]amino]ethoxy]ethoxy]acetyl]amino]ethoxy]ethoxy]acetyl-Asp-Phe(4-sulfomethyl)-Leu-Gly-Trp-Nle-DMeAsp-MePhe-amide] ({C14 diacid-γGlu-AEEA-AEEA}-D[Phe(4-CH2SO3H)]LGW[Nle][dNMeD][NMeF]-NH2)
153		CCCC[C@H](NC(=O)[C@H](Cc1c[nH]c2ccccc12)NC(=O)CNC(=O)[C@H](CC(C)C)NC(=O)[C@H](Cc1ccc(CS(=O)(=O)O)cc1)NC(=O)[C@H](CC(=O)O)NC(=O)COCCOCCNC(=O)COCCOCCNC(=O)CC[C@H](NC(=O)CCCCCCCCCCCCCCCCCCC(=O)O)C(=O)O)C(=O)N(C)[C@H](CC(=O)O)C(=O)N(C)[C@@H](Cc1ccccc1)C(N)=O [Example 35, 2-[2-[2-[[2-[2-[2-[[(4S)-4-Carboxy-4-(19-carboxynonadecanoylamino)butanoyl]amino]ethoxy]ethoxy]acetyl]amino]ethoxy]ethoxy]acetyl-Asp-Phe(4-sulfomethyl)-Leu-Gly-Trp-Nle-DMeAsp-MePhe-amide] ({C20 diacid-γGlu-AEEA-AEEA}-D[Phe(4-CH2SO3H)]LGW[Nle][dNMeD][NMeF]-NH2)
